Where two headings read alike, the source gives them in different places.
Experiment: physchem
Type: physicochemical
Conditions: for chromatographic logP: read-out: logP
In short: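 Following EEC Directive 79/831 Annex V.A8, logP is obtained from retention on a 1.8 micron C18 column (50×4.6 mm) at 55 °C and 2.0 ml/min. Elution ran 10→95% acetonitrile (0.1% formic acid) against water (0.09% formic acid) in 4.25 min, held 1.25 min; mass detection used.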

[1] = HPLC phase inversion (reversed-phase) C18 column, HPLC method a), eluent acetonitrile/water with formic acid

## C=CCNC(=O)c1cc(NC(=O)c2c(C(F)(F)F)c(C(F)(F)C(F)(F)F)nn2C)ccc1Cl [Ik-93]
  logP: 3.44^a)

## Cn1nc(C(F)C2CC2)c(C(F)(F)F)c1C(=O)Nc1ccc(Cl)c(C(=O)NC2CC2)c1 (stereo not drawn) [Ik-233, N-[4-Chloro-3-(cyclopropylcarbamoyl)phenyl]-3-[cyclopropyl(fluoro)methyl]-1-methyl-4-(trifluoromethyl)-1H-pyrazole-5-carboxamide]
[1]
  chromatographic logP: 2.76

## Cn1nc(C(F)(F)C(F)(F)F)c(C(F)(F)F)c1C(=O)Nc1ccc(Cl)c(C(=O)OCC(=O)NC(N)=O)c1 [Ik-110]
  logP: 3.10^a)

## O=C(NC1CC1)c1cc(NC(=O)c2cnc(C(F)(F)C(F)(F)F)nc2C(F)(F)C(F)(F)F)ccc1Cl [Ib-33]
  logP: 3.64^a)

## Cn1nc(C(F)(F)C(F)(F)C(F)(F)C(F)(F)F)cc1C(=O)Nc1ccc(Cl)c(C(=O)NC2CC2)c1 [Ik-266]
  logP: 3.74^a)

## CC(C)CNC(=O)c1cc(NC(=O)c2c(C(F)(F)F)c(C(F)(F)C(F)(F)F)nn2C)ccc1Cl [Ik-92]
  logP: 3.90^a)

## Cc1nc(C(F)(F)F)ncc1C(=O)Nc1ccc(Cl)c(C(=O)NCc2ccccc2)c1 [Ib-22]
  logP: 2.94^a)

## CC(NC(=O)c1cc(NC(=O)c2c(I)c(C(F)(F)C(F)(F)C(F)(F)C(F)(F)F)nn2C)ccc1Cl)C1CC1 (stereo not drawn) [Ik-267]
  logP: 4.38^a)

## Cn1nc(C(F)(F)C(F)(F)F)c(C(F)(F)F)c1C(=O)Nc1ccc(Cl)c(C(=O)NCC(F)(F)F)c1 [Ik-87]
  logP: 3.67^a)

## Cn1nc(OC(F)F)c(Cl)c1C(=O)Nc1ccc(Cl)c(C(=O)NC2CC2)c1 [Ik-238]
  logP: 2.52^a)

## Cn1nc(C(F)(F)C(F)(F)F)c(C(F)(F)F)c1C(=O)Nc1ccc(Br)c(C(=O)NCc2ccccc2)c1 [Ik-172]
  logP: 4.03^a)

## O=C(NC1CC1)c1cc(NC(=O)c2c(C(F)(F)F)c(C(F)(F)C(F)(F)F)nn2-c2ccccc2)ccc1Cl [Ik-176]
  logP: 4.00^a)

## O=C(NCC=CCl)c1cc(NC(=O)c2cnc(C(F)(F)C(F)(F)C(F)(F)F)nc2C(F)(F)F)ccc1Cl [Ib-17]
  logP: 3.92^a)

## O=C(NCC(F)(F)F)c1cc(NC(=O)c2cnc(C(F)(F)F)nc2C(F)(F)F)ccc1Cl [Ib-4]
  logP: 3.14^a)

## Cn1nc(C(F)(F)C(F)(F)F)c(C(F)(F)F)c1C(=O)Nc1cc(Br)c(I)c(C(=O)NCC(F)(F)F)c1 [Ik-212]
  logP: 4.15^a)

## CCn1nc(C(F)(F)C(F)(F)F)c(C(F)(F)F)c1C(=O)Nc1ccc(Cl)c(C(=O)NC2CC2)c1 [Ik-217]
  logP: 3.63^a)

## O=C(NC1CC1)c1cc(NC(=O)c2cnc(C(F)(F)C(F)(F)F)nc2C(F)(F)F)ccc1Cl [Ib-7]
  logP: 3.20^a)

## Cn1nc(C(F)(F)C(F)(F)F)c(I)c1C(=O)Nc1ccc(Cl)c(C(=O)NCC(F)(F)F)c1 [Ik-99]
  logP: 3.52^a)

## Cn1nc(C(F)(F)C(F)(F)F)c(C(F)(F)F)c1C(=O)Nc1cc(F)c(Br)c(C(=O)NCc2ccccc2)c1 [Ik-229]
  logP: 4.14^a)

## Cn1nc(C(F)(F)C(F)(F)F)c(C(F)(F)F)c1C(=O)Nc1ccc2c(c1)C(=O)OC2 [Ik-106]
  logP: 3.20^a)

## Cn1nc(C2CC2)c(C(F)(F)F)c1C(=O)Nc1ccc(Cl)c(C(=O)NC2CC2)c1 [Ik-261]
  logP: 2.78^a)

## Cn1nc(OCC(F)(F)F)c(Br)c1C(=O)Nc1ccc(Cl)c(C(=O)NCC(F)(F)F)c1 [Ik-257]
  logP: 3.26^a)

## Cn1nc(C(F)(F)C(F)(F)F)c(C(F)(F)F)c1C(=O)Nc1ccc(Cl)c(C(=O)NCC=C(Cl)Cl)c1 [Ik-186]
  logP: 4.09^a)

## CSCCNC(=O)c1cc(NC(=O)c2c(C(F)(F)F)c(C(F)(F)C(F)(F)F)nn2C)ccc1Cl [Ik-82]
  logP: 3.57^a)

## Cn1nc(C(F)(F)C(F)(F)F)cc1C(=O)O [1-Methyl-3-pentafluoroethyl-1H-pyrazole-5-carboxylic acid]
[1]
  chromatographic logP: 2.08

## Cn1nc(C(F)(F)C(F)(F)F)c(C(F)(F)F)c1C(=O)Nc1ccc(Cl)c(C(=O)OCC(=O)NCO)c1 [Ik-115]
  logP: 2.93^a)

## Cn1nc(C(F)(F)C(F)(F)F)c(C(F)(F)F)c1C(=O)Nc1cc(F)c(F)c(C(=O)NCc2ccccc2)c1 [Ik-97]
  logP: 4.19^a)

## CC(C)NC(=O)c1cccc(NC(=O)c2c(C(F)(F)F)c(C(F)(F)C(F)(F)F)nn2C)c1Cl [Ik-77]
  logP: 3.47^a)

## Cn1nc(-c2ccc(OC(F)(F)F)cc2)c(Br)c1C(=O)Nc1ccc(Cl)c(C(=O)NC2CC2)c1 [Ik-251]
  logP: 3.76^a)

## Cn1nc(-c2cc(C(F)(F)F)cc(C(F)(F)F)c2)c(C(F)(F)F)c1C(=O)Nc1ccc(Cl)c(C(=O)NCC(F)(F)F)c1 [Ik-258]
  logP: 4.46^a)

## O=C(NCC(F)(F)F)c1cc(NC(=O)c2ccc(C(F)(F)F)nc2Cl)ccc1Cl [Ir-9]
  logP: 2.82^a)

## O=C(NC1CC1)c1cc(NC(=O)c2cnc(C(F)(F)C(F)(F)F)nc2C2CC2)ccc1Cl [Ib-30]
  logP: 3.28^a)

## CSc1c(Br)cc(NC(=O)c2c(C(F)(F)F)c(C(F)(F)C(F)(F)F)nn2C)cc1C(=O)NCC(F)(F)F [Ik-200]
  logP: 4.22^a)

## Cn1nc(C(F)(F)C(F)(F)F)c(C(F)(F)F)c1C(=O)Nc1cc(Br)c(Br)c(C(=O)NCC(F)(F)F)c1 [Ik-209]
  logP: 4.18^a)

## Cn1nc(C(F)(F)C(F)(F)F)c(C(F)(F)F)c1C(=O)Nc1cc(Br)c(Br)c(C(=O)NC2CC2)c1 [Ik-207]
  logP: 3.84^a)

## O=C(NCc1ccccc1)c1cc(NC(=O)c2cnc(C(F)(F)C(F)(F)F)nc2C(F)(F)F)ccc1Cl [Ib-11]
  logP: 3.78^a)

## CSc1c(F)cc(NC(=O)c2c(C(F)(F)F)c(C(F)(F)C(F)(F)F)nn2C)cc1C(=O)NCc1ccccc1 [Ik-192]
  logP: 4.15^a)

## CSc1c(Br)cc(NC(=O)c2c(C(F)(F)F)c(C(F)(F)C(F)(F)F)nn2C)cc1C(=O)NCc1ccccc1 [Ik-199]
  logP: 4.43^a)

## Cn1nc(OCC(F)(F)F)c(I)c1C(=O)Nc1ccc(Cl)c(C(=O)NC2CC2)c1 [Ik-245]
  logP: 2.85^a)

## Cn1nc(C(F)(F)C(F)(F)F)c(C(F)(F)F)c1C(=O)Nc1cc(Br)c(I)c(C(=O)NCc2ccccc2)c1 [Ik-211]
  logP: 4.49^a)

## Cn1nc(C(F)(F)F)c(C(F)(F)F)c1C(=O)Nc1ccc(Cl)c(C(=O)NC2CC2)c1 [Ik-195]
  logP: 2.89^a)

## Cn1nc(OC(F)F)cc1C(=O)Nc1ccc(Cl)c(C(=O)NC2CC2)c1 [Ik-234]
  logP: 2.17^a)

## Cn1nc(C(F)(F)C(F)(F)F)c(C(F)(F)F)c1C(=O)Nc1cccc(C(=O)NC2CC2)c1 [Ik-13]
  logP: 3.15^a)

## Cn1nc(C(F)(F)C(F)(F)F)c(C(F)(F)F)c1C(=O)Nc1cc(C(=O)NC2CC2)c(Cl)cc1F [Ik-143]
  logP: 3.39^a)

## O=C(NCC=CCl)c1cc(NC(=O)c2ccc(C(F)(F)F)nc2Cl)ccc1Cl [Ir-10]
  logP: 2.86^a)

## COCN(C(=O)c1c(C(F)(F)F)c(C(F)(F)C(F)(F)F)nn1C)c1ccc(Cl)c(C(=O)NC2CC2)c1 [Ik-135]
  logP: 3.51^a)

## Cn1nc(C(F)(F)C(F)(F)F)c(C(F)(F)F)c1C(=O)Nc1cc(Cl)c(Br)c(C(=O)NC2CC2)c1 [Ik-213]
  logP: 3.81^a)

## Cn1nc(C(F)(F)C(F)(F)F)c(C(F)(F)F)c1C(=O)Nc1cc(C#N)c(Cl)c(C(=O)NC2CC2)c1 [Ik-187]
  logP: 3.40^a)

## CNC(=O)c1cc(NC(=O)c2ccc(C(F)(F)F)nc2Cl)ccc1Cl [Ir-6]
  logP: 2.16^a)

## Cn1nc(C(F)(F)F)c(Cl)c1C(=O)Nc1ccc(Cl)c(C(=O)NCc2ccccc2)c1 [Ik-20]
  logP: 3.46^a)

## CCSCC(C)NC(=O)c1cc(NC(=O)c2c(C(F)(F)F)c(C(F)(F)C(F)(F)F)nn2C)ccc1Cl (stereo not drawn) [Ik-89]
  logP: 4.09^a)

## Cn1nc(C(F)(F)F)c(C(F)(F)F)c1C(=O)Nc1ccc(Cl)c(C(=O)NCC(F)(F)F)c1 [Ik-125, N-{4-Chloro-3-[(2,2,2-trifluoroethyl)carbamoyl]-phenyl}-1-methyl-3,4-bis(trifluoromethyl)-1H-pyrazole-5-carboxamide]
[1]
  chromatographic logP: 3.25
HPLC phase inversion (reversed-phase) C18 column, HPLC on C18 phase inversion column, method a)
  chromatographic logP: 3.25

## CCn1nc(C(F)(F)C(F)(F)F)c(C(F)(F)F)c1C(=O)Nc1ccc(Cl)c(C(=O)NCC(F)(F)F)c1 [Ik-216]
  logP: 3.93^a)

## O=C(NCC(F)(F)F)c1cc(NC(=O)c2cnc(C(F)(F)C(F)(F)F)nc2C(F)(F)C(F)(F)F)ccc1Cl [Ib-34]
  logP: 3.94^a)

## Cn1nc(OC(F)F)c(I)c1C(=O)Nc1ccc(Cl)c(C(=O)NCC(F)(F)F)c1 [Ik-241]
  logP: 2.92^a)

## Cn1nc(OCC(F)(F)F)c(Cl)c1C(=O)Nc1ccc(Cl)c(C(=O)NCC(F)(F)F)c1 [Ik-243]
  logP: 3.27^a)

## CC(C)N(C(=O)c1c(C(F)(F)F)c(C(F)(F)C(F)(F)F)nn1C)c1ccc(Cl)c(C(=O)NCC(F)(F)F)c1 [Ik-139]
  logP: 4.02^a)

## Cc1nc(C(F)(F)F)ccc1C(=O)Nc1ccc(Cl)c(C(=O)NC(C)C)c1 [Ir-4]
  logP: 2.53^a)

## Cn1nc(C(F)(F)C(F)(F)F)c(C(F)(F)F)c1C(=O)Nc1cc(C(=O)NCC(F)(F)F)c(Cl)cc1Cl [Ik-171]
  logP: 3.97^a)

## Cc1nc(C(=O)Nc2ccc(Cl)c(C(=O)NC3CC3)c2)c(C(F)(F)F)c(C(F)(F)C(F)(F)F)n1 [Ia-1, N-[4-Chloro-3-(cyclopropylcarbamoyl)phenyl]-2-methyl-6-(pentafluoroethyl)-5-(trifluoromethyl)pyrimidine-4-carboxamide]
[1]
  chromatographic logP: 3.33

## Cn1nc(C(F)(F)OC(F)(F)C(F)(F)OC(F)(F)F)c(I)c1C(=O)Nc1ccc(Cl)c(C(=O)NC2CC2)c1 [Ik-264]
  logP: 3.66^a)

## Cn1nc(C(F)(F)F)c(Br)c1C(=O)Nc1ccc(Cl)c(C(=O)NCC=CCl)c1 [Ik-22]
  logP: 3.20^a)

## O=C(NC1CC1)c1cc(NC(=O)c2cnc(Cl)cc2C(F)(F)F)ccc1Cl [2-chloro-N-[4-chloro-3-(cyclopropylcarbamoyl)phenyl]-4-(trifluoromethyl)pyridine-5-carboxamide]
[1]
  chromatographic logP: 2.35

## Cn1nc(-c2ccc(C(F)(F)F)cc2)c(Br)c1C(=O)Nc1ccc(Cl)c(C(=O)NC2CC2)c1 [Ik-249]
  logP: 3.63^a)

## Cn1nc(C(F)(F)C(F)(F)F)c(C(F)(F)F)c1C(=O)Nc1cc(Cl)c(Br)c(C(=O)NCC(F)(F)F)c1 [Ik-215]
  logP: 4.14^a)

Reference: patent US8946234B2, “Halogen-substituted compounds” (Bayer CropScience AG, priority 2008, dated 2015)
